The supplement of paper PMC11061612

Assays:
Experiment in all cases: combination Emax (second highest fraction inhibited in the dose matrix, 72 h); higher = more inhibition; extreme values may be limits of the assay
[1] = system: BT-549 (Breast Carcinoma)
Procedure, shortened: (§1)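 Cell lines grown in DMEM/F12 or RPMI with 10% FBS were plated in 1536-well plates and held 24 hours at 37°C, 5% CO2 before 72 hours of exposure to two-drug dose matrices, with DMSO typically at 0.2%. CellTiter-Glo 2.0 luminescence gave viability, which was converted to inhibition. Vehicle wells were set to 0 and blank wells to 1. Combination Emax is the second-highest inhibition in the matrix, and Bliss excess is the observed combination effect minus the expected EA + EB − EA·EB, where EA and EB are the single-agent effects.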

[2] = system: C-4-I (Cervical Carcinoma)
Procedure, shortened: as §1

[3] = system: Ca9-22 (Head and Neck Carcinoma)
Procedure, shortened: as §1

D-263MG (Glioblastoma) = system: D-263MG (Glioblastoma)
Procedure, shortened: as §1

[4] = system: EFM-19 (Breast Carcinoma)
Procedure, shortened: as §1

EW-24 (Ewing's Sarcoma) = system: EW-24 (Ewing's Sarcoma)
Procedure, shortened: as §1

[5] = system: EoL-1-cell (Acute Myeloid Leukemia)
Procedure, shortened: as §1

[6] = system: HOP-62 (Lung Adenocarcinoma)
Procedure, shortened: as §1

[7] = system: KARPAS-299 (T-Cell Non-Hodgkin's Lymphoma)
Procedure, shortened: as §1

[8] = system: KMOE-2 (Acute Myeloid Leukemia)
Procedure, shortened: as §1

[9] = system: MIA-PaCa-2 (Pancreatic Carcinoma)
Procedure, shortened: as §1

NB69 (Neuroblastoma) = system: NB69 (Neuroblastoma)
Procedure, shortened: as §1

[10] = system: NEC8 (Other Solid Carcinomas)
Procedure, shortened: as §1

[11] = system: PANC-04-03 (Pancreatic Carcinoma)
Procedure, shortened: as §1

PWR-1E (Non-Cancerous) = system: PWR-1E (Non-Cancerous)
Procedure, shortened: as §1

[12] = system: RF-48 (B-Cell Non-Hodgkin's Lymphoma)
Procedure, shortened: as §1

[13] = system: SCC-15 (Oral Cavity Carcinoma)
Procedure, shortened: as §1

[14] = system: SW13 (Other Solid Carcinomas)
Procedure, shortened: as §1

[15] = system: VA-ES-BJ (Other Solid Carcinomas)
Procedure, shortened: as §1

YH-13 (Glioblastoma) = system: YH-13 (Glioblastoma)
Procedure, shortened: as §1

| SMILES | combination Emax [1] | combination Emax [2] | combination Emax [3] | combination Emax (D-263MG (Glioblastoma)) | combination Emax [4] | combination Emax (EW-24 (Ewing's Sarcoma)) | combination Emax [5] | combination Emax [6] | combination Emax [7] | combination Emax [8] | combination Emax [9] | combination Emax (NB69 (Neuroblastoma)) | combination Emax [10] | combination Emax [11] | combination Emax (PWR-1E (Non-Cancerous)) | combination Emax [12] | combination Emax [13] | combination Emax [14] | combination Emax [15] | combination Emax (YH-13 (Glioblastoma)) |
| --- | --- | --- | --- | --- | --- | --- | --- | --- | --- | --- | --- | --- | --- | --- | --- | --- | --- | --- | --- | --- |
| CN(C)CCCOc1ccc(-c2ccc3ncc4c(c3c2)n(C2CCOCC2)c(=O)n4C)cn1 [AZD0156] + C=CCn1c(=O)c2cnc(Nc3ccc(N4CCN(C)CC4)cc3)nc2n1-c1cccc(C(C)(C)O)n1 [AZD1775] (first compound max 1 µM, partner max 1 µM) | 0.613 | 0.755 | 0.721 | 0.38 | 0.607 | 0.279 | 0.996 | 0.266 | 0.918 | 0.854 | 0.595 | 0.877 | 0.336 | 0.471 | 0.678 | 0.602 | 0.308 | 0.147 | 0.381 | 0.352 |
| CC1(C)CCC(CN2CCN(c3ccc(C(=O)NS(=O)(=O)c4ccc(NCC5CCOCC5)c([N+](=O)[O-])c4)c(Oc4cnc5[nH]ccc5c4)c3)CC2)=C(c2ccc(Cl)cc2)C1 [Venetoclax] + CCN(CCO)CCCOc1ccc2c(Nc3cc(CC(=O)Nc4cccc(F)c4)[nH]n3)ncnc2c1 [AZD2811] (first compound max 1 µM, 7x7, partner max 1 µM) | 0.336 | 0.269 | 0.236 | 0.323 | 0.541 | 0.457 | 1 | 0.342 | 0.818 | 0.293 | 0.37 | 0.777 | 0.205 | 0.196 | 0.455 | 0.43 | 0.295 | 0.402 | 0.359 | 0.576 |
| CC(=O)c1c(C)c2cnc(Nc3ccc(N4CCNCC4)cn3)nc2n(C2CCCC2)c1=O [Palbociclib] + Cc1c2c(nn1C)CSCc1cc(n(C)n1)CSc1cc(c3ccccc3c1)OCCCc1c(C(=O)O)n(C)c3c-2c(Cl)ccc13 [AZD5991] (first compound max 10 µM, 7x7, partner max 1 µM) | 0.455 | 0.896 | 0.267 | 0.612 | 0.255 | 0.577 | 1 | 0.424 | 0.968 | 0.65 | 0.447 | 0.91 | 0.277 | 0.196 | 0.271 | 0.298 | 0.191 | 0.838 | 0.283 | 0.38 |
| C[C@@H]1COCCN1c1cc(C2([S@](C)(=N)=O)CC2)nc(-c2ccnc3[nH]ccc23)n1 [AZD6738] + O=C(c1cc(Cc2n[nH]c(=O)c3ccccc23)ccc1F)N1CCN(C(=O)C2CC2)CC1 [Olaparib] (first compound max 10 µM, 7x7, partner max 10 µM) | 0.446 | 0.875 | 0.88 | 0.981 | 0.439 | 0.567 | 0.992 | 0.498 | 0.98 | 0.616 | 0.708 | 0.94 | 0.764 | 0.515 | 0.842 | 0.56 | 0.587 | 0.451 | 0.64 | 0.611 |
| NC1(C(=O)N[C@@H](CCO)c2ccc(Cl)cc2)CCN(c2ncnc3[nH]ccc23)CC1 [Capivasertib] + COc1nnc2ccc(N3CCC(c4ccc(OCCN5CCN(C)C(=O)[C@H]5C)cc4)CC3)nn12 [AZD5153] (first compound max 10 µM, 7x7, partner max 1 µM) | 0.602 | 0.749 | 0.799 | 0.562 | 0.538 | 0.756 | 1 | 0.648 | 0.741 | 0.831 | 0.813 | 0.91 | 0.951 | 0.495 | 0.861 | 0.474 | 0.508 | 0.389 | 0.487 | 0.723 |
| NC1(C(=O)N[C@@H](CCO)c2ccc(Cl)cc2)CCN(c2ncnc3[nH]ccc23)CC1 [Capivasertib] + Cn1cnc2c(F)c(Nc3ccc(Br)cc3Cl)c(C(=O)NOCCO)cc21 [Selumetinib] (first compound max 10 µM, 7x7, partner max 10 µM) | 0.41 | 0.537 | 0.554 | 0.518 | 0.477 | 0.485 | 1 | 0.644 | 0.587 | 1 | 0.643 | 0.903 | 0.152 | 0.576 | 0.486 | 0.456 | 0.524 | 0.65 | 0.347 | 0.598 |
| COc1cccc2c1C(=O)c1c(O)c3c(c(O)c1C2=O)C[C@@](O)(C(=O)CO)C[C@@H]3O[C@H]1C[C@H](N)[C@H](O)[C@H](C)O1 [Doxorubicin] + Cc1cc2ncnn2cc1Nc1ncc2c(n1)n(C1CCOCC1)c(=O)n2C [AZD7648] (first compound max 1 µM, 7x7, partner max 10 µM) | 0.441 | 0.971 | 0.831 | 0.789 | 0.437 | 0.719 | 1 | 0.619 | 0.941 | 0.911 | 0.949 | 0.91 | 0.973 | 0.278 | 0.89 | 0.836 | 0.329 | 0.874 | 0.758 | 0.754 |
| CN(CCO)CC[C@H](CSc1ccccc1)Nc1ccc(S(=O)(=O)NC(=O)c2ccc(N3CCC([C@@H](O)c4ccccc4-c4ccc(Cl)cc4)CC3)cc2)cc1S(=O)(=O)C(F)(F)F [AZD4320] + CN(C)CCCOc1ccc(-c2ccc3ncc4c(c3c2)n(C2CCOCC2)c(=O)n4C)cn1 [AZD0156] (first compound max 1 µM, 7x7, partner max 1 µM) | 0.227 | 0.145 | 0.0929 | 0.0929 | 0.797 | 0.876 | 1 | 0.194 | 0.13 | 0.847 | 0.141 | 0.757 | 0.203 | 0.192 | 0.162 | 0.773 | 0.202 | 0.14 | 0.164 | 0.134 |
| Cn1cnc2c(F)c(Nc3ccc(Br)cc3Cl)c(C(=O)NOCCO)cc21 [Selumetinib] + CCN(CCO)CCCOc1ccc2c(Nc3cc(CC(=O)Nc4cccc(F)c4)[nH]n3)ncnc2c1 [AZD2811] (first compound max 10 µM, 7x7, partner max 1 µM) | 0.3 | 0.66 | 0.475 | 0.284 | 0.219 | 0.427 | 1 | 0.475 | 0.252 | 0.999 | 0.657 | 0.921 | 0.0754 | 0.479 | 0.579 | 0.312 | 0.36 | 0.615 | 0.327 | 0.429 |
| COc1nnc2ccc(N3CCC(c4ccc(OCCN5CCN(C)C(=O)[C@H]5C)cc4)CC3)nn12 [AZD5153] + C=CCn1c(=O)c2cnc(Nc3ccc(N4CCN(C)CC4)cc3)nc2n1-c1cccc(C(C)(C)O)n1 [AZD1775] (first compound max 1 µM, partner max 1 µM) | 0.732 | 0.838 | 0.672 | 0.34 | 0.573 | 0.609 | 1 | 0.631 | 0.919 | 0.971 | 0.882 | 0.99 | 0.913 | 0.484 | 0.886 | 0.558 | 0.435 | 0.561 | 0.724 | 0.592 |
| COc1cccc(OCCCN)c1-c1cc(Nc2cnc(C#N)cn2)n[nH]1 [Prexasertib] + CCc1c2c(nc3ccc(O)cc13)-c1cc3c(c(=O)n1C2)COC(=O)[C@]3(O)CC [SN-38] (first compound max 1 µM, 7x7, partner max 0.3 µM) | 0.864 | 0.999 | 0.985 | 0.955 | 0.841 | 0.832 | 0.996 | 0.843 | 0.992 | 0.999 | 0.999 | 1 | 1 | 0.625 | 1 | 0.804 | 0.802 | 0.996 | 0.914 | 0.862 |
| CC(=O)c1c(C)c2cnc(Nc3ccc(N4CCNCC4)cn3)nc2n(C2CCCC2)c1=O [Palbociclib] + CC1(C)CCC(CN2CCN(c3ccc(C(=O)NS(=O)(=O)c4ccc(NCC5CCOCC5)c([N+](=O)[O-])c4)c(Oc4cnc5[nH]ccc5c4)c3)CC2)=C(c2ccc(Cl)cc2)C1 [Venetoclax] (first compound max 10 µM, 7x7, partner max 1 µM) | 0.308 | 0.0751 | 0.2 | 0.222 | 0.0695 | 0.432 | 0.994 | 0.251 | 0.495 | 0.215 | 0.31 | 0.762 | 0.0159 | 0.0967 | 0.149 | 0.254 | 0.0783 | 0.24 | 0.257 | 0.344 |
